Reference: patent US20220054515A1, “COMPOSITION AND METHOD FOR PROMOTING INTESTINAL BARRIER HEALING” (Glycom A/S, priority 2018, published 2022)
pEC50: −log10 of the molar value.

Target: T1, GPR35 (Homo sapiens, UniProt Q9HC97)
T1 construct: host or cells: PathHunter GPR35 cell line
Assay: GPR35 activation, PathHunter β-Arrestin assay (DiscoverX)
Type: cell-based
Settings: β-arrestin recruitment; for activation of GPR35 (result in words): highest concentration tested 10 mM; for pEC50: β-Gal enzyme fragment complementation, chemiluminescence, highest concentration 10 mM, 3× dilutions, duplicate
Procedure: Six human milk oligosaccharides (LNnT, LNT, 2′-FL, DFL, 6′-SL and 3′-SL) were screened for their ability to activate the GPR35 receptor in an in vitro assay. The screening was conducted by DiscoverX (Fremont, Calif., USA) using the PathHunter β-Arresin assay. This assay monitored the activation of GPR35 expressed in cultured cells, using Enzyme Fragment Complementation with β-galactosidase (β-Gal) as the functional reporter. […] EA was fused to […]. When the GPR35 is activated and β-Arrestin is recruited to the receptor, PK and EA complementation occurs, restoring β-Gal activity, which was measured using chemiluminescent Detection Reagents.
The GPR35 cell line was expanded from frozen stocks and cultured according to standard procedures. Cells were seeded in a total volume of 20 μl into white walled, 384-well microplates and incubated at 37° C. for the appropriate time prior to testing. All of the testings were done in duplicate.
HMO samples were shipped to DiscoverX as concentrated stocks in Phosphate Buffered saline. On the test day, a 5× compound working intermediate was prepared in PBS. Five μl of 5× sample were added to cells and incubated at room temperature for 3 to 5 hours.
Assay signal was generated through a single addition of 12.5 μl (50 v/v %) of PathHunter Detection reagent cocktail, followed by one-hour incubation at room temperature. Microplates were read following signal generation with a PerkinElmer Envision™ instrument for chemiluminescent signal detection. Zaprinast (which is known to be an activator of GPR35) was used as positive control. Dose-responses were generated by iterative 3× dilutions of the highest concentration tested (10 mM).

T1 sequence (Q9HC97 whole entry): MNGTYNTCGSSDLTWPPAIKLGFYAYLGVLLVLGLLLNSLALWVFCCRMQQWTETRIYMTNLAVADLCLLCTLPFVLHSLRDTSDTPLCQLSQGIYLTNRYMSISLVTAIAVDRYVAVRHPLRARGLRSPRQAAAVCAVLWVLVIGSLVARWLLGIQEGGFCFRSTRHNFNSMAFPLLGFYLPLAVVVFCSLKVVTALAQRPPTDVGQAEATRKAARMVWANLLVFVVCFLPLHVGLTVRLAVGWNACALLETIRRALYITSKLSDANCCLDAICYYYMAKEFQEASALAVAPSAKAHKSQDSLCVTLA

C[C@@H]1O[C@@H](O[C@H]2[C@H](O[C@H]3[C@H](O[C@@H]4O[C@@H](C)[C@@H](O)[C@@H](O)[C@@H]4O)[C@@H](O)C(O)O[C@@H]3CO)O[C@H](CO)[C@H](O)[C@@H]2O)[C@@H](O)[C@H](O)[C@@H]1O (some centres unmarked) [DFL, difucosyllactose]
activation of GPR35 (result in words): No activation

CC(=O)N[C@H]1[C@H]([C@H](O)[C@H](O)CO)O[C@@](OC[C@H]2O[C@@H](O[C@H]3[C@H](O)[C@@H](O)[C@H](O)O[C@@H]3CO)[C@H](O)[C@@H](O)[C@H]2O)(C(=O)O)C[C@@H]1O [6′-SL, 6′-sialyllactose]
pEC50: 2.19

CC(=O)N[C@H]1[C@H](O[C@H]2[C@@H](O)[C@@H](CO)O[C@@H](O[C@H]3[C@H](O)[C@@H](O)C(O)O[C@@H]3CO)[C@@H]2O)O[C@H](CO)[C@@H](O)[C@@H]1O[C@@H]1O[C@H](CO)[C@H](O)[C@H](O)[C@H]1O (some centres unmarked) [LNT, lacto-N-tetraose]
pEC50: 2.35

CC(=O)N[C@H]1[C@H](O[C@H]2[C@@H](O)[C@@H](CO)O[C@@H](O[C@H]3[C@H](O)[C@@H](O)C(O)O[C@@H]3CO)[C@@H]2O)O[C@H](CO)[C@@H](O[C@@H]2O[C@H](CO)[C@H](O)[C@H](O)[C@H]2O)[C@@H]1O (mixture of isomers) [LNnT, lacto-N-neotetraose]
activation of GPR35 (result in words): No activation

CC(=O)N[C@H]1[C@H]([C@H](O)[C@H](O)CO)O[C@@](O[C@H]2[C@@H](O)[C@@H](CO)O[C@@H](O[C@H]3[C@H](O)[C@@H](O)C(O)O[C@@H]3CO)[C@@H]2O)(C(=O)O)C[C@@H]1O (some centres unmarked) [3′-SL, 3′-sialyllactose]
activation of GPR35 (result in words): No activation
